In ChEMBL document CHEMBL1201862, “PubChem BioAssay data set” (2004):
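Dose response: 5 concentrations. Exposure: 48 h. Format: 96-well plates. Endpoint: linear interpolation; highest concentration if not reached. GI50 = concentration required for 50% inhibition of growth.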 Calls of active or inactive are those of the source. No stated cut-off is given here; in the data, active = GI50 up to about 1.1 µM and inactive = higher.

Experiments:
Assay in all cases: growth of human tumour cells (NCI), 48 h
[1] = test system: ACHN
[2] = test system: SK-MEL-5
[3] = test system: OVCAR-4
[4] = test system: HT-29
[5] = test system: DU-145
[6] = test system: HL-60
[7] = test system: SW-620
[8] = test system: M14
[9] = test system: NCI-H460
[10] = test system: SNB-19
[11] = test system: NCI-H522
[12] = test system: COLO 205
[13] = test system: HCT-116
[14] = test system: KM12
[15] = test system: HCT-15
[16] = test system: OVCAR-3
[17] = test system: U-251
[18] = test system: MOLT-4
[19] = test system: EKVX
[20] = test system: SF-539
[21] = test system: UO-31
[22] = test system: SK-OV-3
[23] = test system: PC-3
[24] = test system: 786-0
[25] = test system: CCRF-CEM
[26] = test system: HOP-62
[27] = test system: MDA-N
[28] = test system: IGROV-1
[29] = test system: CAKI-1
[30] = test system: BT-549
[31] = test system: SNB-75
[32] = test system: SR
[33] = test system: SF-268
[34] = test system: MCF7
[35] = test system: RPMI-8226
[36] = test system: UACC-257
[37] = test system: UACC-62
[38] = test system: NCI-H23
[39] = test system: A549
[40] = test system: A498
[41] = test system: RXF 393
[42] = test system: HCC 2998
[43] = test system: SF-295
[44] = test system: MDA-MB-435
[45] = test system: NCI/ADR-RES
[46] = test system: SK-MEL-2
[47] = test system: SK-MEL-28
[48] = test system: NCI-H226
[49] = test system: LOX IMVI
[50] = test system: Hs-578T
[51] = test system: OVCAR-8
[52] = test system: T47D
[53] = test system: OVCAR-5
[54] = test system: K562
[55] = test system: TK-10

Compound: Cn1c2ccccc2n2c3ccccc3c(=S)c(C#N)c12
- GI50 [1]: > 100 µM (inactive)
- GI50 [2]: > 100 µM (inactive)
- GI50 [3]: > 100 µM (inactive)
- GI50 [4]: > 100 µM (inactive)
- GI50 [5]: > 100 µM (inactive)
- GI50 [6]: > 100 µM (inactive)
- GI50 [7]: > 100 µM (inactive)
- GI50 [8]: > 100 µM (inactive)
- GI50 [9]: > 100 µM (inactive)
- GI50 [10]: > 100 µM (inactive)
- GI50 [11]: > 100 µM (inactive)
- GI50 [12]: > 10 µM (inactive)
- GI50 [13]: > 100 µM (inactive)
- GI50 [14]: > 100 µM (inactive)
- GI50 [15]: > 100 µM
- GI50 [16]: > 100 µM (inactive)
- GI50 [17]: > 100 µM (inactive)
- GI50 [18]: > 100 µM (inactive)
- GI50 [19]: > 100 µM (inactive)
- GI50 [20]: > 100 µM (inactive)
- GI50 [21]: > 100 µM (inactive)
- GI50 [22]: > 100 µM (inactive)
- GI50 [23]: > 100 µM (inactive)
- GI50 [24]: 92.3 µM (inactive)
- GI50 [25]: > 100 µM (inactive)
- GI50 [26]: 53.1 µM (inactive)
- GI50 [27]: > 100 µM (inactive)
- GI50 [28]: > 100 µM (inactive)
- GI50 [29]: > 100 µM (inactive)
- GI50 [30]: > 100 µM (inactive)
- GI50 [31]: > 100 µM (inactive)
- GI50 [32]: > 100 µM (inactive)
- GI50 [33]: > 100 µM (inactive)
- GI50 [34]: > 100 µM (inactive)
- GI50 [35]: > 100 µM (inactive)
- GI50 [36]: > 100 µM (inactive)
- GI50 [37]: > 100 µM (inactive)
- GI50 [38]: > 100 µM (inactive)
- GI50 [39]: > 100 µM (inactive)
- GI50 [40]: > 100 µM (inactive)
- GI50 [41]: > 100 µM (inactive)
- GI50 [42]: > 100 µM (inactive)
- GI50 [43]: > 100 µM (inactive)
- GI50 [44]: > 100 µM (inactive)
- GI50 [45]: > 100 µM (inactive)
- GI50 [46]: > 100 µM (inactive)
- GI50 [47]: > 100 µM (inactive)
- GI50 [48]: > 100 µM (inactive)
- GI50 [49]: > 100 µM (inactive)
- GI50 [50]: > 100 µM (inactive)
- GI50 [51]: > 100 µM (inactive)
- GI50 [52]: > 10 µM (inactive)
- GI50 [53]: > 100 µM (inactive)
- GI50 [54]: > 100 µM (inactive)
- GI50 [55]: > 100 µM (inactive)
